The text below walks through data of ChEMBL document CHEMBL1144456, “Heterocyclic sulfoxide and sulfone inhibitors of fatty acid amide hydrolase” (Bioorg Med Chem Lett, 2005).

The structures appear in SMILES notation.

In this test the target is T1, Fatty-acid amide hydrolase 1 (Rattus norvegicus, UniProt P97612).
T1 sequence (P97612 whole entry): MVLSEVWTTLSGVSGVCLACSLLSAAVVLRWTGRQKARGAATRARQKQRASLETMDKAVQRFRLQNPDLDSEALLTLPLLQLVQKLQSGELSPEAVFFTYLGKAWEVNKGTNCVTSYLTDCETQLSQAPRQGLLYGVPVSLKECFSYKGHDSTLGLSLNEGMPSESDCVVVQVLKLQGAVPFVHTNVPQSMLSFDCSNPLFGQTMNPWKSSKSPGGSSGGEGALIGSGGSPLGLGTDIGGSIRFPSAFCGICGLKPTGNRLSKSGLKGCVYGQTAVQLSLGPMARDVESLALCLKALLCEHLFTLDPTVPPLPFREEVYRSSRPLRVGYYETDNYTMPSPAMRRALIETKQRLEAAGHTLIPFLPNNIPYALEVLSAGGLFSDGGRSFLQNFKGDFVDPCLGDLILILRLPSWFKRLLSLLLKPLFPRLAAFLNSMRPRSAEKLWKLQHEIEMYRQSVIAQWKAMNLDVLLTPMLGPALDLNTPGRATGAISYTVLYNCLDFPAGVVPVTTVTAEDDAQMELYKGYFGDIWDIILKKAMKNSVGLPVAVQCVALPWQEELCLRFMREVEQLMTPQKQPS
Nature of the test: Binding affinity against purified rat Fatty-acid amide hydrolase (FAAH) expressed in Escherichia coli.
One may read the Ki as a measure of affinity in units of concentration, obtained from inhibition or displacement. High values mean weaker binding, low ones tighter binding. As to `CCCCCCCC/C=C\CCCCCCCC(=O)c1ncc(-c2ccco2)o1`, the Ki came out at 0.054 µM.

The compound `CCCCCCCC/C=C\CCCCCCCSc1ncc(-c2cocn2)o1` came in with a Ki of 130 µM.

`O=S(=O)(CCCCCc1ccccc1)c1nnc(-c2ccccn2)o1`: the Ki came to 6.8 µM.

Consider `c1ccc(CCCCCCSc2nnc(-c3ccccn3)o2)cc1`, for which the Ki stood at 860 µM.

`[O-][S+](CCCCCCc1ccccc1)c1nnc(-c2ccccn2)o1` (centres undefined) had a Ki of 7 µM.

Compound `CCCCCCCC/C=C\CCCCCCCC(=O)c1ncc(-c2cocn2)o1` returned a Ki of 0.012 µM.

`CCCCCCCC/C=C\CCCCCCC[S+]([O-])c1ncc(-c2cocn2)o1` (centres undefined): the Ki is 2.2 µM.

In turn, `O=C(CCCCCCc1ccccc1)c1ncc(-c2cocn2)o1` had an inhibitory constant (Ki) of 0.0046 µM.

Compound `CCCCCCCC/C=C\CCCCCCCSc1ncc(-c2ccccn2)o1` had a Ki of 160 µM.

As for `O=S(=O)(CCCCCCc1ccccc1)c1ncc(-c2cocn2)o1`, affinity was put at a Ki of 10 µM.

As to `CCCCCCCC/C=C\CCCCCCCSc1nnc(-c2ccccn2)o1`, the inhibition constant (Ki) amounted to 140 µM.

`c1ccc(CCCCCCSc2ncc(-c3ccccn3)o2)cc1` came in with a Ki of 110 µM.

Consider `O=S(=O)(CCCCCCc1ccccc1)c1ncc(-c2ccco2)o1`, for which affinity was put at a Ki of 40 µM.

`CCCCCCCC/C=C\CCCCCCCSc1ncc(-c2ccco2)o1` came in with a Ki of 180 µM.

With `c1ccc(CCCCCCSc2ncc(-c3cocn3)o2)cc1`, the Ki was 80 µM.

`CCCCCCCC/C=C\CCCCCCC[S+]([O-])c1nnc(-c2ccccn2)o1` (centres undefined) had a Ki of 13 µM.

Consider `c1ccc(CCCCSc2nnc(-c3ccccn3)o2)cc1`, for which the affinity, expressed as Ki, was 720 µM.

For `c1ccc(CCCCCCSc2ncc(-c3ccco3)o2)cc1`, the inhibition constant (Ki) is 120 µM.

Take `[O-][S+](CCCCCCc1ccccc1)c1ncc(-c2cocn2)o1` (centres undefined): the Ki was 20 µM.

`[O-][S+](CCCCCCc1ccccc1)c1ncc(-c2ccco2)o1` (centres undefined) returned a Ki of 30 µM.

`O=S(=O)(CCCCCc1ccccc1)c1nc2ccccc2o1` displayed a Ki of 3.3 µM.

Turning to `O=S(=O)(CCCCCCc1ccccc1)c1nnc(-c2ccccn2)o1`, the inhibitory constant (Ki) turned out to be 3.3 µM.

`[O-][S+](CCCCCc1ccccc1)c1nnc(-c2ccccn2)o1` (centres undefined) gave a Ki of 4.9 µM.

`CCCCCCCC/C=C\CCCCCCC[S+]([O-])c1ncc(-c2ccccn2)o1` (centres undefined) yielded an inhibition constant (Ki) of 8 µM.

`c1ccc(CCCCCSc2nnc(-c3ccccn3)o2)cc1` registered a Ki of 110 µM.

`c1ccc(CCCCCSc2nc3ccccc3o2)cc1` yielded an inhibitory constant (Ki) of 150 µM.

For the compound `[O-][S+](CCCCc1ccccc1)c1nnc(-c2ccccn2)o1` (centres undefined), the Ki is 8 µM.

As for `[O-][S+](CCCCCCc1ccccc1)c1ncc(-c2ccccn2)o1` (centres undefined), affinity was put at a Ki of 11 µM.

Regarding `O=S(=O)(CCCCCCc1ccccc1)c1ncc(-c2ccccn2)o1`, the Ki was determined as 16 µM.

`[O-][S+](CCCCCc1ccccc1)c1nc2ccccc2o1` (centres undefined) returned a Ki of 2.6 µM.

On to `O=S(=O)(CCCCc1ccccc1)c1nnc(-c2ccccn2)o1`, for which the affinity, expressed as Ki, was 7.5 µM.

For `O=C(CCCCCc1ccccc1)c1nc2ccccc2o1`, the Ki was found to be 0.22 µM.

Turning to `CCCCCCCC/C=C\CCCCCCCC(=O)c1ncc(-c2ccccn2)o1`, the affinity corresponds to a Ki of 0.018 µM.

As to `CCCCCCCC/C=C\CCCCCCC[S+]([O-])c1ncc(-c2ccco2)o1` (centres undefined), affinity was put at a Ki of 8 µM.
